Measurements taken from ChEMBL document CHEMBL1201862, “PubChem BioAssay data set” (2004).
Blank lines part the entries; values can stand above or below the molecule they belong to. The source made the active and inactive calls.

Tests used:
[1] = biological target: T1, Calpain-2 catalytic subunit (Sus scrofa, UniProt P43367); test: m-calpain protease blockers, concentration series – biochemical, fluorogenic peptide substrate, dose response (AID 1420); format: functional
T1 sequence (P43367 whole entry): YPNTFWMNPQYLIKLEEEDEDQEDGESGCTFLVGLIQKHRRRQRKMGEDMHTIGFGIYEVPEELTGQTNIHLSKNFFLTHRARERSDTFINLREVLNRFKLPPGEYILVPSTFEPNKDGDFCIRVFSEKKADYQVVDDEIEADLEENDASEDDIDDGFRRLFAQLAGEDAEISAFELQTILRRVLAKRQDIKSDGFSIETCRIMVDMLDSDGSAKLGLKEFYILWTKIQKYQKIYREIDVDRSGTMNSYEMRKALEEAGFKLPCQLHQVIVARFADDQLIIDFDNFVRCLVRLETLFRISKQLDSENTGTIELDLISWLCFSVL

[2] = biological target: Induced myeloid leukemia cell differentiation protein Mcl-1 (Homo sapiens, UniProt Q07820); format: functional
Sequence of Induced myeloid leukemia cell differentiation protein Mcl-1 (Q07820 whole entry): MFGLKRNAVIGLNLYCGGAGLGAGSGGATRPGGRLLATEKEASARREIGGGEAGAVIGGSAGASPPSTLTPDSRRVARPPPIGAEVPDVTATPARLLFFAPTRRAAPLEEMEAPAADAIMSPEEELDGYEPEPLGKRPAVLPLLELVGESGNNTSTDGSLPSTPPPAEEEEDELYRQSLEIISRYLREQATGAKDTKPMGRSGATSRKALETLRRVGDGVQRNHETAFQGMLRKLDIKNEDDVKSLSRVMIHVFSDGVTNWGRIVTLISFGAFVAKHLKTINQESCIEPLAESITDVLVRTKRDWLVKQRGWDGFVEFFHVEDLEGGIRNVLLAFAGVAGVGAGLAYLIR

[3] = biological target: Prothrombin (Homo sapiens, UniProt P00734); test: Thrombin 1536 HTS Dose Response Confirmation. [Related pubchem assays: 1046 (Thrombin 1536 HTS; hits were confirmed in this assay)]; format: functional
[4] = biological target: Cytochrome P450 2C9 (Homo sapiens, UniProt P11712)
Sequence of Cytochrome P450 2C9 (P11712 whole entry): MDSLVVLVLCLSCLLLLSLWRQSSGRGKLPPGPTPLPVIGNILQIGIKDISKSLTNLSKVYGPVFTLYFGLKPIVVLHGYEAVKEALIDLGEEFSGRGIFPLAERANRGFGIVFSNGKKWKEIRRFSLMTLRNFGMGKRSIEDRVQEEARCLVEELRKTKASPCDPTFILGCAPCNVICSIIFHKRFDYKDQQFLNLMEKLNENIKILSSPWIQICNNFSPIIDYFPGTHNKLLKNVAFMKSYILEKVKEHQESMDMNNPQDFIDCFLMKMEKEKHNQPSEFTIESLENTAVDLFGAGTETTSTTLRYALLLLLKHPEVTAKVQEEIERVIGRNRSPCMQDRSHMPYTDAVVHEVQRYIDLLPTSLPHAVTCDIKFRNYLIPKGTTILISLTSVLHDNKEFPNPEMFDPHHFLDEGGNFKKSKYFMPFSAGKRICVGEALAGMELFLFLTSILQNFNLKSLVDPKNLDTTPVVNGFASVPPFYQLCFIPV

[5] = biological target: Cytochrome P450 3A4 (Homo sapiens, UniProt P08684); conditions: Potency;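 note: confirmatory qHTS run detecting inhibitors and substrates of CYP3A4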
Sequence of Cytochrome P450 3A4 (P08684 whole entry): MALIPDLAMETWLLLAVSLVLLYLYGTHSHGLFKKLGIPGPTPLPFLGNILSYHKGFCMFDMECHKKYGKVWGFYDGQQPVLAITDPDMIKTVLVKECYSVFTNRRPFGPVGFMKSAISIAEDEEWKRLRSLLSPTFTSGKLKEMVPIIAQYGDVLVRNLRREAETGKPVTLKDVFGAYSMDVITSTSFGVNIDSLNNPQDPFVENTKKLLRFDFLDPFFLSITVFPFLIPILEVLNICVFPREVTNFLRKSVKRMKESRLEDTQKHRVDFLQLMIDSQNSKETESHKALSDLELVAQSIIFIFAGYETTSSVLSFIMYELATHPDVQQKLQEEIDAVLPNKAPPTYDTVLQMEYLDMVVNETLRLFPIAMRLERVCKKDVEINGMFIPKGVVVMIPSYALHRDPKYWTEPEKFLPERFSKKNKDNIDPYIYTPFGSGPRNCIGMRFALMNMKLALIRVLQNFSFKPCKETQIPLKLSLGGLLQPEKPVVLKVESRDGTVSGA

[6] = biological target: T2, Caspase-6 (Homo sapiens, UniProt P55212); test: inhibition of CASP6 peptide cleavage – biochemical, VEID-R110 fluorescence, cherry-pick, dose response (AID 720632)
T2 sequence (P55212 whole entry): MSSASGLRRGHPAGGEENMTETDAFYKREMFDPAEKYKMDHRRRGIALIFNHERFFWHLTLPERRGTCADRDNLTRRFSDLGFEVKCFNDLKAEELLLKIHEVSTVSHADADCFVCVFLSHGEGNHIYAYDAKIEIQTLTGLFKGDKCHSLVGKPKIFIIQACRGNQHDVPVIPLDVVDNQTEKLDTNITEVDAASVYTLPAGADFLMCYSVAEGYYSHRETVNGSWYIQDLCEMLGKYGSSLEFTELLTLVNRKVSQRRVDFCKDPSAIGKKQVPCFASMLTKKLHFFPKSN

[7] = biological target: T3, Sentrin-specific protease 8 (Homo sapiens, UniProt Q96LD8); format: functional;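 note: luminescence read-out of SENP8 inhibition, dose-response confirmation following an ultra-high-throughput screen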
T3 sequence (Q96LD8 whole entry): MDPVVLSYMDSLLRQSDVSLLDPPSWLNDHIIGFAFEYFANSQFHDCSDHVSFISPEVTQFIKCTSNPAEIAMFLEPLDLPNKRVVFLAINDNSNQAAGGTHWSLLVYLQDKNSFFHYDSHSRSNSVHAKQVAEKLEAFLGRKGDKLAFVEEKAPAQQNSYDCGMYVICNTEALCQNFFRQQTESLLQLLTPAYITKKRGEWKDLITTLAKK

[8] = biological target: T4, Sentrin-specific protease 7 (Homo sapiens, UniProt Q9BQF6); format: functional;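 note: Luminescence-based dose-response confirmation of ultra-high-throughput screening hits, measuring inhibition of SENP7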
T4 sequence (Q9BQF6 whole entry): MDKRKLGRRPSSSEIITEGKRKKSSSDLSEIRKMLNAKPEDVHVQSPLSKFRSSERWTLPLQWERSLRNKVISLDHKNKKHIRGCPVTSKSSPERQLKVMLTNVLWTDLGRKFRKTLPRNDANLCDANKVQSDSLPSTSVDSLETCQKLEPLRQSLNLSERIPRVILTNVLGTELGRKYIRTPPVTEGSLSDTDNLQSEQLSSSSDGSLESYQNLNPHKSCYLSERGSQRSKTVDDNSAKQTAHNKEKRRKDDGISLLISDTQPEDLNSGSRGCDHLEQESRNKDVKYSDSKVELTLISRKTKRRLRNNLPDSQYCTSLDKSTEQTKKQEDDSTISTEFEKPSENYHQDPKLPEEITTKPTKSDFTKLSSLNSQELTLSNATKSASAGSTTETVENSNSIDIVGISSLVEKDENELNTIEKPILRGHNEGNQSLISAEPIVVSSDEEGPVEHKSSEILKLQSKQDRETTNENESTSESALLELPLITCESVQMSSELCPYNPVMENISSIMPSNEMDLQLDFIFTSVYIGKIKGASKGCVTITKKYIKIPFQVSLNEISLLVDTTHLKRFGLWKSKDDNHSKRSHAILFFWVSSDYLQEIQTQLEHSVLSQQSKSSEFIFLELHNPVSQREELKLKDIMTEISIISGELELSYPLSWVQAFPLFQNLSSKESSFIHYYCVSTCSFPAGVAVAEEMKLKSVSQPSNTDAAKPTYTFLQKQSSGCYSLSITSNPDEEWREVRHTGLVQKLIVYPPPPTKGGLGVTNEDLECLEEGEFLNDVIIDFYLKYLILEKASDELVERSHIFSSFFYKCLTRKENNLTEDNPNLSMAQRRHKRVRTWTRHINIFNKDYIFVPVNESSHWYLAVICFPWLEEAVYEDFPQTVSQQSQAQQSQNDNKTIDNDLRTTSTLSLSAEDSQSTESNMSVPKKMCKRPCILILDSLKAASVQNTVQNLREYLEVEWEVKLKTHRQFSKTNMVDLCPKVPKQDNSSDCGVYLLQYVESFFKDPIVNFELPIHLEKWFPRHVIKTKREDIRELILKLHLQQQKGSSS

[9] = biological target: T5, Sentrin-specific protease 6 (Homo sapiens, UniProt Q9GZR1); format: functional;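 note: Luminescence-based dose-response confirmatory assay of SENP6 inhibition, following up an ultra-high-throughput screen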
T5 sequence (Q9GZR1 whole entry): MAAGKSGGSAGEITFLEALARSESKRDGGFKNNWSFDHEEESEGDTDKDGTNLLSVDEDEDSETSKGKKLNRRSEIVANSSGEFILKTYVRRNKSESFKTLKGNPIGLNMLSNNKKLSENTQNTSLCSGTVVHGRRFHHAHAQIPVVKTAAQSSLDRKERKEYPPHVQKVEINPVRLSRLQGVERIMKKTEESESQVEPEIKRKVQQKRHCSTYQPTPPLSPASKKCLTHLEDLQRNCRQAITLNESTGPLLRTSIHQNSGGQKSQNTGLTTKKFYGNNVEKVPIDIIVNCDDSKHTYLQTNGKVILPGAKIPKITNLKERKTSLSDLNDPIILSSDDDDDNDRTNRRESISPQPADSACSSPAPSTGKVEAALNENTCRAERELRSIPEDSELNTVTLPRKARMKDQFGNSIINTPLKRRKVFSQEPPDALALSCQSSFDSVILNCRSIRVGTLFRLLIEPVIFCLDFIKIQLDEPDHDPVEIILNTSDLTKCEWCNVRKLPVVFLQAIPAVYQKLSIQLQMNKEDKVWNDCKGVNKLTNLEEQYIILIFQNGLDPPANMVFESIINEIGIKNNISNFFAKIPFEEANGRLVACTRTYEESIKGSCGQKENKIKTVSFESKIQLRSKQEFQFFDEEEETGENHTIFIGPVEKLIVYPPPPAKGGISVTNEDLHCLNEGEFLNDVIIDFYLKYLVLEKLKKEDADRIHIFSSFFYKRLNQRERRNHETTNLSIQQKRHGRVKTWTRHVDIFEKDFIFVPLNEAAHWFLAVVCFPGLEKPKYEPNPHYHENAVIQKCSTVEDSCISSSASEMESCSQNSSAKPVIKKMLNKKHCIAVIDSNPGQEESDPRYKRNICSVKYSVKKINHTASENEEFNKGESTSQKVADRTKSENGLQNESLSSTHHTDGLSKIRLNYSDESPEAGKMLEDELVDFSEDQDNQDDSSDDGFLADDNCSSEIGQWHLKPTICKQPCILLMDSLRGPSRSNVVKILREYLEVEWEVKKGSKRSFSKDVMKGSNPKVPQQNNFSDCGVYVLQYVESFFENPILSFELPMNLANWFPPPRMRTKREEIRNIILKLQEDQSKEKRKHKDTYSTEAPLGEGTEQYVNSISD

[10] = viability of HCT116 lacking mutant beta-catenin – cell-based, human colon tumor, dose response (AID 1045); format: functional;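 note: HCT116 colon tumor cells with beta catenin knocked out; cells exposed to compound for 60 hours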
[11] = viability of PTEN-deleted HCT116 cells – cell-based, HCT116 PTEN knockout, dose response (AID 1047); format: functional;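 note: HCT116 colon tumor cells with PTEN knocked out; cells exposed to compound for 60 hours before readout; potency for loss of cell viability measured by luminescence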
[12] = biological target: T6, Caspase-3 (Homo sapiens, UniProt P42574); format: functional;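 note: Dose-response selectivity test against caspase-3 for candidate inhibitors of sentrin-specific proteases (SENPs)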
T6 sequence (P42574 whole entry): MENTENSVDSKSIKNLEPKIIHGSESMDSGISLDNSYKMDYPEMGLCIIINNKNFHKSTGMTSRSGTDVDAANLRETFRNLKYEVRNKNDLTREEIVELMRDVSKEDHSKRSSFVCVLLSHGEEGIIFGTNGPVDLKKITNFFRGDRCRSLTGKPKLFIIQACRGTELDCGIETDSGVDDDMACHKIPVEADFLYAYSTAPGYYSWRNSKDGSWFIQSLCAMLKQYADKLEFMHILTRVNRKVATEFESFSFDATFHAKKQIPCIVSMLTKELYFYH

[13] = tested on: BJ; test: cells; format: functional, cell-based; conditions: Homo sapiens
[14] = HEK-293T viability loss after treatment – luminescence, T-cell screen hits, cytotoxicity control for TCR NF-kB inhibitor project, dose response (AID 489026); format: functional, cell-based;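 note: cells exposed to compound about 14 hours before the viability readout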
[15] = tested on: BJ; test: BJ-TERT-LT-ST fibroblast viability loss – cell-based, RAS-independent, luminescence, dose response (AID 1935); format: functional; conditions: Homo sapiens;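 note: BJ fibroblasts immortalized with TERT plus LT and ST oncogenes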
[16] = tested on: BJ; test: BJ-TERT fibroblast viability loss – cell-based, RAS-independent, luminescence, dose response (AID 1933); format: functional; conditions: Homo sapiens
[17] = DRD fibroblast viability loss – cell-based, non-viral oncogenic, luminescence, dose response (AID 1934); format: functional; conditions: Homo sapiens

Structure (SMILES): CCc1nn2c(=O)cc(COc3ccc(/C=C4\C(=N)N5N=C(C)SC5=NC4=O)cc3)nc2s1
IC50 [2]: 4.66 µM (active)

Structure (SMILES): COc1ccc(C(=O)n2nc(-c3ccccc3)nc2SC)cc1
AC50 [4]: 0.141 µM (inconclusive)
IC50 [3]: 0.913 µM (active)

Structure (SMILES): O=C(O)c1ccc(N=Nc2c(O)[nH]c3cc(Cl)ccc23)cc1
AC50 [6]: 49.4 µM (active)

Structure (SMILES): COCC(=O)n1nc(-c2ccc(C)cc2)nc1NCc1ccc(F)cc1
IC50 [3]: 0.502 µM (active)

Structure (SMILES): Oc1[nH]c2ccccc2c1N=Nc1nc2ccccc2s1
IC50 [7]: > 100 µM (inactive)
IC50 [8]: 4.3 µM (active)
IC50 [9]: 66.4 µM (active)
EC50 [10]: 32.3 µM (active)
EC50 [11]: 26.5 µM (active)
IC50 [2]: 3.84 µM (active)
IC50 [12]: 27.6 µM (active)

Structure (SMILES): CC(=O)n1nc(-c2ccc(C)cc2)nc1NCc1ccc(F)cc1
IC50 [3]: 0.373 µM (active)

Structure (SMILES): CC(C)C(=O)n1nc(-c2cccnc2)nc1NCc1cccs1
IC50 [3]: 0.006 µM (active)

Structure (SMILES): CCOc1ccc(N(CC(=O)Nc2ccccc2C)S(=O)(=O)c2c(C)noc2C)cc1
EC50 [13]: 29.9 µM (active)
IC50 [14]: > 80 µM (inactive)
EC50 [15]: 16.9 µM (active)
EC50 [16]: 5.06 µM (active)
EC50 [17]: 4.15 µM (active)

Continued, values first:

IC50 [1]: 10.4 µM (active)
Structure (SMILES): Cn1c(N)c(C(=O)COC(=O)C2CCC(C(C)(C)C)CC2)c(=O)n(C)c1=O (stereo not drawn)

IC50 [3]: > 50 µM (inconclusive)
Structure (SMILES): COc1cccc(NC(=S)N(CCCN2CCCC2)Cc2ccco2)c1

AC50 [5]: 3.16 µM (inconclusive)
Structure (SMILES): COC(C1CCCCC1)C(C)C(OCc1cccc(Br)c1)C(C)CO (stereo not drawn)

IC50 [1]: 19.3 µM (active)
Structure (SMILES): COc1cc(-n2c(=O)c3ccccc3n(Cc3cccc(C)c3)c2=O)cc(OC)c1OC
